Data from PubChem BioAssay AID1918957 (Molecular Pharmacology Branch, DTP, NCI, 2023).

Test system: NCI-H1876 complex spheroid viability
Assay: Anticancer human tumor NCI-H1876 cell line growth inhibition [LSD1];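 further: spheroids exposed to compounds for one week before readout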;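 on viability, T/C: 100% = DMSO vehicle-treated spheroids so lower means fewer viable cells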
Settings: for IC50: curve of first compound; for viability, T/C: stronger effect = lower value; active means viability on the fitted dose curve at most 10% of control; inactive means the rest
Source text: Multicellular complex tumor spheroid response to LSD1 Inhibitor Iadademstat in combination with a variety of drugs and investigational agents in selected tumor cell lines
The current study was undertaken to assess response to LSD1 inhibitors in combination with standard-of-care drugs and investigational agents in solid tumor complex spheroid models as well as in the K-562 leukemia. Complex spheroids include a stromal component modeled by human endothelial cells (HUVEC) and fibroblasts modeled by human mesenchymal stem cells (MSCs). The concentration ranges selected for each drug and investigational agent were based upon clinically achievable concentrations if the clinical Cmax of the agent was known.
Compounds. The drugs and investigational agents used in this study are listed on Table 1. All of the agents used, including staurosporine (NSC755774) and gemcitabine (NSC613327), were obtained from the Developmental Therapeutics Program, NCI. FDA-approved anticancer drugs are available from the NCI at http://dtp.nci.nih.gov/branches/dscb/oncology_drugset_explanation.html. Drugs and investigational agents were >95% pure by proton nuclear magnetic resonance (NMR) and liquid chromatography/mass spectrometry (LC/MS). Stock solutions were prepared at 400x in DMSO, stored at -70 degrees C, and diluted in fresh medium prior to their use. The final concentration of DMSO in cell culture wells never exceeded 0.25% (v/v). The FDA-approved anticancer drug set is available from the Developmental Therapeutics Program at https://dtp.cancer.gov/organization/dscb/obtaining/available_plates.htm. All drugs and investigational agents were tested over a range starting from a high concentration at or near the clinical Cmax and decreasing in half-log increments. If the clinical Cmax for an agent had not been determined, the highest concentration tested was 10 microM.
Cell Lines. The patient-derived cancer cell (PDC) lines: 292921-168-R-J2-PDC, K24384-001-R-PDC, and 521955-158-R2-J5-PDC pancreatic carcinomas, 556581-035-R-J1 ovarian carcinoma, 324938-238-R-J1-PDC, 855422-203-R-J1-PDC and 883617-216-R-J1-PDC urothelial bladder carcinomas, 743489-274-T-PDC renal cell carcinoma, 138582-R-J1 Merkel cell tumor, K60290-347-R-J1 and K57222-313-R-J1-PDC glioblastomas, 653999-131-R-J2-PDC, LG0703-F948-PDC, and 349418-098-R-PDC non-small cell lung carcinomas, 885512-296-R-J2-PDC, 171881-019-R-J1-PDC breast carcinomas and 186277-243-T-J2-PDC and 233499-124-R-J2-PDC colon carcinomas were obtained from the NCI Patient-Derived Models Repository (PDMR, https://pdmr.cancer.gov). The established cell lines NCI/ADR-RES (RRID:CVCL_14520 and OVCAR-5 (RRID:CVCL_1628) ovarian carcinomas, 786-O (RRID:CVCL_1051) and A498 (RRID:CVCL_A498) renal cell carcinoma, NCI-H211 (ATCC, cat. CRL-5824; RRID:CVCL_1529), NCI-H196 (ATCC, cat. CRL-5823, RRID:CVCL_1509), SW 1271 (ATCC, cat. CRL-2177, RRID:CVCL_1716) and NCI-H1876 (ATCC, cat. CRL-5902, RRID:CVCL_1503) small cell lung carcinomas, MDA-MB-231 (RRID:CVCL_0062) and MDA-MB-468 (RRID:CVCL_0419)breast carcinomas (10-12). Pooled donor human umbilical vein endothelial cells (HUVEC, Lonza, cat. CC-2519) and human mesenchymal stem cells (hMSC, Lonza, cat. PT-2501) were purchased from Lonza (Walkersville, MD).
Cell Culture. All cells were maintained in an incubator at 37 degrees C and 5% CO2 with 95% humidity. The PDC lines were cultured according to standard operating procedures established by the NCI PDMR (https://pdmr.cancer.gov). Briefly all PDCs were thawed and cultured in Matrigel-coated flasks prepared with a working solution of 1X Ham's F-12 nutrient mix, without supplementation (Invitrogen, Waltham, MA, cat. 11765054), 100 U/mL penicillin-streptomycin (Invitrogen, cat. 15140122), and 2.5% Matrigel (Corning Inc., Corning, NY, cat. 354248) for the first three passages. […]

[1] = second compound 0.1 µM, first compound 0.0316 µM
[2] = second compound 0.1 µM, first compound 0.1 µM
[3] = second compound 0.1 µM, first compound 0.316 µM
[4] = second compound 0.1 µM, first compound 1 µM
[5] = second compound 0.316 µM, first compound 0.0316 µM
[6] = second compound 0.316 µM, first compound 0.1 µM
[7] = second compound 0.316 µM, first compound 0.316 µM
[8] = second compound 0.316 µM, first compound 1 µM
[9] = second compound 1 µM, first compound 0.0316 µM
[10] = second compound 1 µM, first compound 0.1 µM
[11] = second compound 1 µM, first compound 0.316 µM
[12] = second compound 1 µM, first compound 1 µM
[13] = second compound 3.16 µM, first compound 0.0316 µM
[14] = second compound 3.16 µM, first compound 0.1 µM
[15] = second compound 3.16 µM, first compound 0.316 µM
[16] = second compound 3.16 µM, first compound 1 µM
[17] = second compound 10 µM, first compound 0.0316 µM
[18] = second compound 10 µM, first compound 0.1 µM
[19] = second compound 10 µM, first compound 0.316 µM
[20] = second compound 10 µM, first compound 1 µM

COc1cc(Nc2ncc3c(n2)-c2ccc(Cl)cc2C(c2c(F)cccc2OC)=NC3)ccc1C(=O)O + NC1CCC(NC2CC2c2ccccc2)CC1
17.2 nM: IC50 (second compound 10 µM)
inactive: viability, T/C (second compound 0.1 µM, first compound 0.00316 µM) 67.7% | viability, T/C (second compound 0.1 µM, first compound 0.01 µM) 59.1% | viability, T/C [1] 51.7% | viability, T/C [2] 39.5% | viability, T/C [3] 31.7% | viability, T/C [4] 25.7% | viability, T/C (second compound 0.316 µM, first compound 0.00316 µM) 64.9% | viability, T/C (second compound 0.316 µM, first compound 0.01 µM) 52.9% | viability, T/C [5] 45.6% | viability, T/C [6] 37.6% | viability, T/C [7] 35% | viability, T/C [8] 23.7% | viability, T/C (second compound 1 µM, first compound 0.00316 µM) 62.3% | viability, T/C (second compound 1 µM, first compound 0.01 µM) 57.5% | viability, T/C [9] 51.8% | viability, T/C [10] 40% | viability, T/C [11] 32.3% | viability, T/C [12] 19.9% | viability, T/C (second compound 3.16 µM, first compound 0.00316 µM) 62.9% | viability, T/C (second compound 3.16 µM, first compound 0.01 µM) 52.1% | viability, T/C [13] 47.2% | viability, T/C [14] 41.2% | viability, T/C [15] 28.6% | viability, T/C [16] 22.1% | viability, T/C (second compound 10 µM, first compound 0.00316 µM) 60.9% | viability, T/C (second compound 10 µM, first compound 0.01 µM) 52.7% | viability, T/C [17] 50.3% | viability, T/C [18] 33.2% | viability, T/C [19] 31.5% | viability, T/C [20] 22.5%
20 nM: IC50 (second compound 3.16 µM)
18.1 nM: IC50 (second compound 0.316 µM)
34.7 nM: IC50 (second compound 1 µM)
33.3 nM: IC50 (second compound 0.1 µM)

NS(=O)(=O)OCC1CC(n2ccc3c(NC4CCc5ccccc54)ncnc32)CC1O (stereo not given) + NC1CCC(NC2CC2c2ccccc2)CC1
inactive: viability, T/C (second compound 0.1 µM, first compound 0.00949 µM) 78.2% | viability, T/C (second compound 0.1 µM, first compound 0.03 µM) 60.1% | viability, T/C (second compound 0.1 µM, first compound 0.0949 µM) 56.1% | viability, T/C (second compound 0.1 µM, first compound 0.3 µM) 36.6% | viability, T/C (second compound 0.1 µM, first compound 0.949 µM) 36.1% | viability, T/C (second compound 0.1 µM, first compound 3 µM) 31.7% | viability, T/C (second compound 0.316 µM, first compound 0.00949 µM) 75.3% | viability, T/C (second compound 0.316 µM, first compound 0.03 µM) 60.5% | viability, T/C (second compound 0.316 µM, first compound 0.0949 µM) 47.2% | viability, T/C (second compound 0.316 µM, first compound 0.3 µM) 39.4% | viability, T/C (second compound 0.316 µM, first compound 0.949 µM) 37.9% | viability, T/C (second compound 0.316 µM, first compound 3 µM) 31.4% | viability, T/C (second compound 1 µM, first compound 0.00949 µM) 83.5% | viability, T/C (second compound 1 µM, first compound 0.03 µM) 62.3% | viability, T/C (second compound 1 µM, first compound 0.0949 µM) 46.8% | viability, T/C (second compound 1 µM, first compound 0.3 µM) 35.1% | viability, T/C (second compound 1 µM, first compound 0.949 µM) 34.2% | viability, T/C (second compound 1 µM, first compound 3 µM) 30.1% | viability, T/C (second compound 3.16 µM, first compound 0.00949 µM) 70.9% | viability, T/C (second compound 3.16 µM, first compound 0.03 µM) 57.9% | viability, T/C (second compound 3.16 µM, first compound 0.0949 µM) 48.4% | viability, T/C (second compound 3.16 µM, first compound 0.3 µM) 35.9% | viability, T/C (second compound 3.16 µM, first compound 0.949 µM) 33.6% | viability, T/C (second compound 3.16 µM, first compound 3 µM) 28.8% | viability, T/C (second compound 10 µM, first compound 0.00949 µM) 77.3% | viability, T/C (second compound 10 µM, first compound 0.03 µM) 63% | viability, T/C (second compound 10 µM, first compound 0.0949 µM) 47.6% | viability, T/C (second compound 10 µM, first compound 0.3 µM) 37% | viability, T/C (second compound 10 µM, first compound 0.949 µM) 32.3% | viability, T/C (second compound 10 µM, first compound 3 µM) 24.4%
78 nM: IC50 (second compound 0.316 µM)
68.9 nM: IC50 (second compound 3.16 µM)
101 nM: IC50 (second compound 0.1 µM)
83 nM: IC50 (second compound 10 µM)
71.8 nM: IC50 (second compound 1 µM)

CC1COCCN1c1cc(C2(S(C)(=N)=O)CC2)nc(-c2ccnc3[nH]ccc23)n1 (stereo not given) + NC1CCC(NC2CC2c2ccccc2)CC1
6220 nM: IC50 (second compound 3.16 µM)
6720 nM: IC50 (second compound 1 µM)
5470 nM: IC50 (second compound 10 µM)
6670 nM: IC50 (second compound 0.316 µM)
7480 nM: IC50 (second compound 0.1 µM)
inactive: viability, T/C [1] 115% | viability, T/C [2] 116% | viability, T/C [3] 115% | viability, T/C [4] 124% | viability, T/C (second compound 0.1 µM, first compound 3.16 µM) 91.6% | viability, T/C (second compound 0.1 µM, first compound 10 µM) 35.9% | viability, T/C [5] 119% | viability, T/C [6] 129% | viability, T/C [7] 117% | viability, T/C [8] 105% | viability, T/C (second compound 0.316 µM, first compound 3.16 µM) 86.2% | viability, T/C (second compound 0.316 µM, first compound 10 µM) 30.7% | viability, T/C [9] 118% | viability, T/C [10] 116% | viability, T/C [11] 114% | viability, T/C [12] 113% | viability, T/C (second compound 1 µM, first compound 3.16 µM) 86.6% | viability, T/C (second compound 1 µM, first compound 10 µM) 30.7% | viability, T/C [13] 116% | viability, T/C [14] 130% | viability, T/C [15] 126% | viability, T/C [16] 110% | viability, T/C (second compound 3.16 µM, first compound 3.16 µM) 80.6% | viability, T/C (second compound 3.16 µM, first compound 10 µM) 28.8% | viability, T/C [17] 114% | viability, T/C [18] 116% | viability, T/C [19] 113% | viability, T/C [20] 101% | viability, T/C (second compound 10 µM, first compound 3.16 µM) 73.7% | viability, T/C (second compound 10 µM, first compound 10 µM) 24.2%
